Reference: publication PMC5218480 (PLoS ONE, 2017)

Tested on: MV-4-11 cells
Experiment: Gene expression microarray analysis (Affymetrix PrimeView) and GSEA
Type: cell-based, human
Set-up: RFU PODN (11730768_x_at) / Fold change /veh PODN (11730768_x_at) / RFU LINC00158 (11744669_a_at) / Fold change /veh LINC00158 (11744669_a_at) / RFU DUSP10 (11751237_a_at) / Fold change /veh DUSP10 (11751237_a_at) / RFU ID3 (11757404_x_at) / Fold change /veh ID3 (11757404_x_at) / RFU PLEKHG5 (11737974_s_at) / Fold change /veh PLEKHG5 (11737974_s_at) / RFU LRRC4B (11730491_at) / Fold change /veh LRRC4B (11730491_at) / RFU GIMAP4 (11747438_a_at) / Fold change /veh GIMAP4 (11747438_a_at) / RFU KRT8 (11758183_x_at) / Fold change /veh KRT8 (11758183_x_at) / RFU CNN1 (11734310_a_at) / Fold change /veh CNN1 (11734310_a_at) / RFU VPS37D (11726825_at) / Fold change /veh VPS37D (11726825_at) / RFU C10orf10 (11716522_x_at) / Fold change /veh C10orf10 (11716522_x_at) / RFU KIR2DL2 /// KIR2DL4 /// KIR2DL5A /// KIR2DL5B /// KIR2DS1 /// KIR2DS2 /// KIR2DS3 /// KIR2DS4 /// KIR3DL3 /// KIR3DL3 /// KIR3DS1 (11738374_at) / Fold change /veh KIR2DL2 /// KIR2DL4 /// KIR2DL5A /// KIR2DL5B /// KIR2DS1 /// KIR2DS2 /// KIR2DS3 /// KIR2DS4 /// KIR3DL3 /// KIR3DL3 /// KIR3DS1 (11738374_at) / RFU C1QL1 (11718748_at) / Fold change /veh C1QL1 (11718748_at) / RFU TMPRSS4 (11747572_a_at) / Fold change /veh TMPRSS4 (11747572_a_at) / RFU HAMP (11756126_x_at) / Fold change /veh HAMP (11756126_x_at) / RFU RNFT2 (11725882_a_at) / Fold change /veh RNFT2 (11725882_a_at) / RFU NR4A2 (11747474_a_at) / Fold change /veh NR4A2 (11747474_a_at) / RFU ABCC12 (11746883_a_at) / Fold change /veh ABCC12 (11746883_a_at) / RFU TMEM136 (11760407_x_at) / Fold change /veh TMEM136 (11760407_x_at) / RFU CLDN22 /// WWC2 (11732394_at) / Fold change /veh CLDN22 /// WWC2 (11732394_at) / RFU HLA-DPB1 (11760878_x_at) / Fold change /veh HLA-DPB1 (11760878_x_at) / RFU SPINT1 (11716480_a_at) / Fold change /veh SPINT1 (11716480_a_at) / RFU GAP43 (11754022_s_at) / Fold change /veh GAP43 (11754022_s_at) / RFU A4GNT (11735810_at) / Fold change /veh A4GNT (11735810_at) / RFU PRB3 (11715151_x_at) / Fold change /veh PRB3 (11715151_x_at) / RFU TUBB4B (11761932_at) / Fold change /veh TUBB4B (11761932_at) / RFU CAPN14 (11732068_a_at) / Fold change /veh CAPN14 (11732068_a_at) / RFU TMCC2 (11721928_a_at) / Fold change /veh TMCC2 (11721928_a_at) / RFU IRGQ (11745062_a_at) / Fold change /veh IRGQ (11745062_a_at) / RFU FAM174B (11720279_a_at) / Fold change /veh FAM174B (11720279_a_at) / RFU TMPRSS4 (11748680_a_at) / Fold change /veh TMPRSS4 (11748680_a_at) / RFU FAM212B (11763350_a_at) / Fold change /veh FAM212B (11763350_a_at) / RFU PLEKHG5 (11743358_a_at) / Fold change /veh PLEKHG5 (11743358_a_at) / RFU ZSCAN30 (11745921_a_at) / Fold change /veh ZSCAN30 (11745921_a_at) / RFU CMKLR1 (11741424_a_at) / Fold change /veh CMKLR1 (11741424_a_at) / RFU LOC101060620 /// MAPK8IP1 (11723275_at) / Fold change /veh LOC101060620 /// MAPK8IP1 (11723275_at) / RFU SPTSSB (11747773_x_at) / Fold change /veh SPTSSB (11747773_x_at) / RFU PRSS12 (11739890_at) / Fold change /veh PRSS12 (11739890_at) / RFU BIN1 (11741810_x_at) / Fold change /veh BIN1 (11741810_x_at) / RFU WNT11 (11732464_a_at) / Fold change /veh WNT11 (11732464_a_at) / RFU C10orf10 (11716521_a_at) / Fold change /veh C10orf10 (11716521_a_at) / RFU C5orf56 (11738089_at) / Fold change /veh C5orf56 (11738089_at) / RFU CYB561 (11721691_x_at) / Fold change /veh CYB561 (11721691_x_at) / RFU ANKRD19P (11752326_a_at) / Fold change /veh ANKRD19P (11752326_a_at) / RFU OR2T12 /// OR2T33 /// OR2T8 (11738714_s_at) / Fold change /veh OR2T12 /// OR2T33 /// OR2T8 (11738714_s_at) / RFU VCAN (11748164_a_at) / Fold change /veh VCAN (11748164_a_at) / RFU JSRP1 (11732532_at) / Fold change /veh JSRP1 (11732532_at) / RFU KRTAP10-11 (11738290_x_at) / Fold change /veh KRTAP10-11 (11738290_x_at) / RFU MYO3A (11730013_a_at) / Fold change /veh MYO3A (11730013_a_at) / RFU EBF3 (11725865_a_at) / Fold change /veh EBF3 (11725865_a_at) / RFU CAMK2N1 (11719241_x_at) / Fold change /veh CAMK2N1 (11719241_x_at) / RFU C5orf56 (11738088_a_at) / Fold change /veh C5orf56 (11738088_a_at) / RFU OLFML3 (11715873_a_at) / Fold change /veh OLFML3 (11715873_a_at) / RFU LOC100653217 /// NTM (11731650_a_at) / Fold change /veh LOC100653217 /// NTM (11731650_a_at) / RFU MAPK11 (11762145_a_at) / Fold change /veh MAPK11 (11762145_a_at) / RFU FIZ1 (11724087_x_at) / Fold change /veh FIZ1 (11724087_x_at) / RFU OASL (11726364_x_at) / Fold change /veh OASL (11726364_x_at) / RFU SOX15 (11748057_x_at) / Fold change /veh SOX15 (11748057_x_at) / RFU CD79A (11719716_a_at) / Fold change /veh CD79A (11719716_a_at) / RFU HIST1H1D (11736915_at) / Fold change /veh HIST1H1D (11736915_at) / RFU CASKIN2 (11723855_a_at) / Fold change /veh CASKIN2 (11723855_a_at) / RFU LOC730098 (11760151_x_at) / Fold change /veh LOC730098 (11760151_x_at) / RFU OR4N2 (11742367_at) / Fold change /veh OR4N2 (11742367_at) / RFU PRRT2 (11749266_a_at) / Fold change /veh PRRT2 (11749266_a_at) / RFU SNX32 (11753110_a_at) / Fold change /veh SNX32 (11753110_a_at) / RFU CDHR5 (11726645_a_at) / Fold change /veh CDHR5 (11726645_a_at) / RFU RCAN1 (11760418_a_at) / Fold change /veh RCAN1 (11760418_a_at) / RFU FAM167A (11723789_a_at) / Fold change /veh FAM167A (11723789_a_at) / RFU FAM26E (11764081_at) / Fold change /veh FAM26E (11764081_at) / RFU ISYNA1 (11749810_s_at) / Fold change /veh ISYNA1 (11749810_s_at) / RFU ACY1 (11761880_at) / Fold change /veh ACY1 (11761880_at) / RFU 11764098_at / Fold change /veh 11764098_at / RFU SAMD14 (11745864_x_at) / Fold change /veh SAMD14 (11745864_x_at) / RFU NPB (11741838_a_at) / Fold change /veh NPB (11741838_a_at) / RFU TMPRSS6 (11731388_a_at) / Fold change /veh TMPRSS6 (11731388_a_at) / RFU KRTAP10-2 (11738614_at) / Fold change /veh KRTAP10-2 (11738614_at) / RFU ARHGAP8 /// PRR5-ARHGAP8 (11727945_x_at) / Fold change /veh ARHGAP8 /// PRR5-ARHGAP8 (11727945_x_at) / RFU KRTAP5-7 /// NADSYN1 (11734609_at) / Fold change /veh KRTAP5-7 /// NADSYN1 (11734609_at) / RFU RASL12 (11751679_a_at) / Fold change /veh RASL12 (11751679_a_at) / RFU CDKN2B (11736163_a_at) / Fold change /veh CDKN2B (11736163_a_at) / RFU PRF1 (11729649_at) / Fold change /veh PRF1 (11729649_at) / RFU, ZNF638 /// ZNF638-IT1 / Fold change vs veh, ZNF638 /// ZNF638-IT1 / RFU, PANK3 / Fold change vs veh, PANK3 / RFU, SH3YL1 / Fold change vs veh, SH3YL1 / RFU, ZEB2 / Fold change vs veh, ZEB2 / RFU, NRIP1 / Fold change vs veh, NRIP1 / RFU, PTTG1IP / Fold change vs veh, PTTG1IP / RFU, CAPN2 / Fold change vs veh, CAPN2 / RFU, MED14 / Fold change vs veh, MED14 / RFU, SNORA58 / Fold change vs veh, SNORA58 / RFU, C1orf63 / Fold change vs veh, C1orf63 / RFU, LRRFIP1 / Fold change vs veh, LRRFIP1 / RFU, NDUFAF7 / Fold change vs veh, NDUFAF7 / RFU, SLC12A2 / Fold change vs veh, SLC12A2 / RFU, IBTK / Fold change vs veh, IBTK / RFU, ESF1 / Fold change vs veh, ESF1 / Fold change vs veh, TMEM50B / RFU, TAOK1 / Fold change vs veh, TAOK1 / RFU, ACBD3 / Fold change vs veh, ACBD3 / RFU, TMA16 / Fold change vs veh, TMA16 / RFU, RWDD3 / Fold change vs veh, RWDD3 / RFU, BCAT1 / Fold change vs veh, BCAT1 / RFU, EDEM3 / Fold change vs veh, EDEM3 / RFU, TMEM33 / Fold change vs veh, TMEM33 / RFU, WDR75 / Fold change vs veh, WDR75 / RFU, AHCTF1 / Fold change vs veh, AHCTF1 / RFU, TFRC / Fold change vs veh, TFRC / RFU, ZDHHC17 / Fold change vs veh, ZDHHC17 / RFU, NOM1 / Fold change vs veh, NOM1 / RFU, ARL8B / Fold change vs veh, ARL8B / RFU, ZBTB11 / Fold change vs veh, ZBTB11 / RFU, TAMM41 / Fold change vs veh, TAMM41 / RFU, KIAA1704 /// LOC100996395 / Fold change vs veh, KIAA1704 /// LOC100996395 / RFU, ING1 / Fold change vs veh, ING1 / RFU, TRMT61B / Fold change vs veh, TRMT61B / RFU, FUBP3 / Fold change vs veh, FUBP3 / RFU, TP53 / Fold change vs veh, TP53 / RFU, TNKS2 / Fold change vs veh, TNKS2 / RFU, ZFP14 / Fold change vs veh, ZFP14 / RFU, ACTR2 / Fold change vs veh, ACTR2 / RFU, PPP3R1 / Fold change vs veh, PPP3R1 / RFU, PIK3R1 / Fold change vs veh, PIK3R1 / RFU, HNRNPA1 / Fold change vs veh, HNRNPA1 / RFU, RNF170 / Fold change vs veh, RNF170 / RFU, ZNF28 / Fold change vs veh, ZNF28 / RFU, RNGTT / Fold change vs veh, RNGTT / RFU, OGT / Fold change vs veh, OGT / RFU, BRD1 / Fold change vs veh, BRD1 / RFU, MARS / Fold change vs veh, MARS / RFU, ZNF655 / Fold change vs veh, ZNF655 / RFU, FAHD1 / Fold change vs veh, FAHD1 / RFU, BDP1 / Fold change vs veh, BDP1 / RFU, LRRCC1 / Fold change vs veh, LRRCC1 / RFU, ARID1A / Fold change vs veh, ARID1A / RFU, ZNF146 / Fold change vs veh, ZNF146 / RFU, ZNF330 / Fold change vs veh, ZNF330 / RFU, GPN3 / Fold change vs veh, GPN3 / RFU, C9orf123 / Fold change vs veh, C9orf123 / RFU, N4BP2L2 / Fold change vs veh, N4BP2L2 / RFU, ARFIP1 / Fold change vs veh, ARFIP1 / RFU, FAM179B / Fold change vs veh, FAM179B / RFU, BCL10 / Fold change vs veh, BCL10 / RFU, UHRF1BP1L / Fold change vs veh, UHRF1BP1L / RFU, BET1 / Fold change vs veh, BET1 / RFU, CNOT2 / Fold change vs veh, CNOT2 / RFU, ZNF268 / Fold change vs veh, ZNF268 / Fold change vs veh, ZNF507 / RFU, DGCR2 / Fold change vs veh, DGCR2 / RFU, WDSUB1 / Fold change vs veh, WDSUB1 / Fold change vs veh, HSP90B1 /// MIR3652 / RFU, ADSS / Fold change vs veh, ADSS / RFU, GK / Fold change vs veh, GK / RFU, ZNF148 / Fold change vs veh, ZNF148 / RFU, TAF9 / Fold change vs veh, TAF9 / RFU, SLC1A5 / Fold change vs veh, SLC1A5 / RFU, SLMO2 / Fold change vs veh, SLMO2 / RFU, ABCC4 / Fold change vs veh, ABCC4 / RFU, LOC101060439 /// RAP1B / Fold change vs veh, LOC101060439 /// RAP1B / RFU, RFX7 / Fold change vs veh, RFX7 / RFU, GTPBP10 / Fold change vs veh, GTPBP10 / RFU, CNEP1R1 / Fold change vs veh, CNEP1R1 / RFU, BIVM-ERCC5 /// ERCC5 / Fold change vs veh, BIVM-ERCC5 /// ERCC5 / RFU, ILF3 / Fold change vs veh, ILF3 / RFU 11762660_at / Fold change /veh 11762660_at / RFU VCAN (11757783_s_at) / Fold change /veh VCAN (11757783_s_at) / RFU DDX43 (11728927_at) / Fold change /veh DDX43 (11728927_at) / RFU KRT8 (11758188_x_at) / Fold change /veh KRT8 (11758188_x_at) / RFU NKD1 (11759106_at) / Fold change /veh NKD1 (11759106_at) / RFU SRD5A1 (11742802_a_at) / Fold change /veh SRD5A1 (11742802_a_at) / RFU TPSAB1 /// TPSB2 (11721975_s_at) / Fold change /veh TPSAB1 /// TPSB2 (11721975_s_at) / RFU GSTM3 (11746129_a_at) / Fold change /veh GSTM3 (11746129_a_at) / RFU IL23R (11737362_x_at) / Fold change /veh IL23R (11737362_x_at) / RFU TMEM51 (11727254_a_at) / Fold change /veh TMEM51 (11727254_a_at) / RFU PIWIL2 (11732686_x_at) / Fold change /veh PIWIL2 (11732686_x_at) / RFU ORM1 (11744905_x_at) / Fold change /veh ORM1 (11744905_x_at) / RFU CCDC152 (11743942_at) / Fold change /veh CCDC152 (11743942_at) / RFU ECM1 (11717891_a_at) / Fold change /veh ECM1 (11717891_a_at) / RFU IL23R (11748794_a_at) / Fold change /veh IL23R (11748794_a_at) / RFU TNFAIP8L3 (11732012_x_at) / Fold change /veh TNFAIP8L3 (11732012_x_at) / RFU MBOAT4 (11741988_at) / Fold change /veh MBOAT4 (11741988_at) / RFU 11764193_at / Fold change /veh 11764193_at / RFU TMEM53 (11763286_at) / Fold change /veh TMEM53 (11763286_at) / RFU MAGEB2 (11727129_at) / Fold change /veh MAGEB2 (11727129_at) / RFU TMEM200A (11744735_a_at) / Fold change /veh TMEM200A (11744735_a_at) / RFU CCDC152 (11751479_a_at) / Fold change /veh CCDC152 (11751479_a_at) / RFU FAM211A (11726209_a_at) / Fold change /veh FAM211A (11726209_a_at) / RFU RGS16 (11746705_a_at) / Fold change /veh RGS16 (11746705_a_at) / RFU VCAN (11755009_s_at) / Fold change /veh VCAN (11755009_s_at) / RFU RHOB (11743442_s_at) / Fold change /veh RHOB (11743442_s_at) / RFU RGS16 (11720943_a_at) / Fold change /veh RGS16 (11720943_a_at) / RFU RGS16 (11720944_at) / Fold change /veh RGS16 (11720944_at) / RFU, VPS4B / Fold change vs veh, VPS4B / RFU, CREB1 / Fold change vs veh, CREB1 / RFU, DNAJC13 / Fold change vs veh, DNAJC13 / RFU, GNAQ / Fold change vs veh, GNAQ / RFU, CDK5R1 / Fold change vs veh, CDK5R1 / RFU, ZRANB3 / Fold change vs veh, ZRANB3 / RFU, CUL4A / Fold change vs veh, CUL4A / RFU, CCNY / Fold change vs veh, CCNY / RFU, UFL1 / Fold change vs veh, UFL1 / RFU, COG3 / Fold change vs veh, COG3 / RFU, DIAPH2 / Fold change vs veh, DIAPH2 / RFU, SKA2 / Fold change vs veh, SKA2 / RFU, AFF3 / Fold change vs veh, AFF3 / RFU, LMF1 / Fold change vs veh, LMF1 / RFU, IPO11 / Fold change vs veh, IPO11 / RFU, DFFB / Fold change vs veh, DFFB / RFU, FOXP1 / Fold change vs veh, FOXP1 / RFU, CARD8 / Fold change vs veh, CARD8 / RFU, STRN3 / Fold change vs veh, STRN3 / RFU, ADK / Fold change vs veh, ADK / RFU, RASSF2 / Fold change vs veh, RASSF2 / RFU, WIPF1 / Fold change vs veh, WIPF1 / RFU, LARP1B / Fold change vs veh, LARP1B / RFU, RASA1 / Fold change vs veh, RASA1 / RFU, RB1 / Fold change vs veh, RB1 / RFU, PPFIA1 / Fold change vs veh, PPFIA1 / RFU, MAT2A / Fold change vs veh, MAT2A / RFU, CCT5 / Fold change vs veh, CCT5 / RFU, WDR92 / Fold change vs veh, WDR92 / RFU, CUX1 / Fold change vs veh, CUX1 / RFU, TTC7A / Fold change vs veh, TTC7A / RFU, TMEM135 / Fold change vs veh, TMEM135 / RFU, DEPTOR / Fold change vs veh, DEPTOR / RFU, CPM / Fold change vs veh, CPM / RFU, DNAJB6 / Fold change vs veh, DNAJB6 / RFU, CACNA2D3 / Fold change vs veh, CACNA2D3 / RFU, DTX4 / Fold change vs veh, DTX4 / RFU, TFCP2 / Fold change vs veh, TFCP2 / RFU, GMCL1 /// GMCL1P1 / Fold change vs veh, GMCL1 /// GMCL1P1 / RFU, AEBP2 / Fold change vs veh, AEBP2 / RFU, SNHG1 /// SNORD22 /// SNORD25 /// SNORD26 /// SNORD27 /// SNORD28 /// SNORD29 /// SNORD31 / Fold change vs veh, SNHG1 /// SNORD22 /// SNORD25 /// SNORD26 /// SNORD27 /// SNORD28 /// SNORD29 /// SNORD31 / Fold change (Aza/veh), C12orf56 (ProbeSet 11735607_a_at) / Fold change (ACY-1035/veh), C12orf56 (ProbeSet 11735607_a_at) / Fold change (Aza/veh), FGFR1OP (ProbeSet 11751329_s_at) / Fold change (ACY-1035/veh), FGFR1OP (ProbeSet 11751329_s_at) / Fold change (Aza/veh), VPS36 (ProbeSet 11739960_a_at) / Fold change (ACY-1035/veh), VPS36 (ProbeSet 11739960_a_at) / RFU SYPL1 (11715823_x_at) / Fold change /veh SYPL1 (11715823_x_at) / RFU IGFBP7 (11715501_s_at) / Fold change /veh IGFBP7 (11715501_s_at) / RFU REEP3 (11722064_at) / Fold change /veh REEP3 (11722064_at) / RFU IGLL1 (11728026_x_at) / Fold change /veh IGLL1 (11728026_x_at): dose or concentration left out as unconfirmed
Settings: ProbeSet 11717876_a_at; LIST D

Nc1ncn([C@@H]2O[C@H](CO)[C@@H](O)[C@H]2O)c(=O)n1 [azacitidine]
Fold change vs veh, PPFIA1: 0.68
